Test results as given in patent US9255258B2 (priority 2009, dated 2016).
Read-outs that look alike come from different tables or passages of the source.

Tests used:
[1] = biological target: Phi29 (exo-) (D169A mutant) (Bacillus phage phi29, UniProt P03680, D169A)
Procedure: Base Reading Mix: 50 mM Tris (pH 7.5), 50 mM NaCl, 5 mM CaCl2, 0.2% BSA, 80 μg/mL glucose oxidase; 2000 U/mL Katalase; 1 mM Trolox; 0.5% glucose; 250 nM Phi29 (exo-) (D169A mutant), 500 nM non-hydrolyzable nucleotide (AF647-C6 alkyl linker-alpha-thio-dA4P nucleotide analog, labeled at the terminal phosphate with ALEXA FLUOR 647).
Commercial nanoparticles (605 ITK SAV quantum dots, Invitrogen, catalog # Q10001MP) were immobilized onto PEG/PEG-biotin coverslip surfaces at 5 pM for 4 minutes. The surface-immobilized nanoparticles were saturated with hairpin molecules via the biotin in the loop.
All the transient-binding and extension steps as well as the protocols and the imaging conditions were identical to the ones described in Example 8 above (6-Base Extension, 2-Color Sequencing, in the Presence of Calcium). In this experiment only one non-hydrolyzable-AF647-dA4P were used in all transient-binding steps.
The transient-binding reaction steps, using labeled non-hydrolyzable nucleotides steps, were conducted at room temperature and included: • 1.

Klenow (exo-) = Klenow (exo-) (Escherichia coli, UniProt P00582, D355A/E357A); settings: P2-1 primer (template nucleotide A); 200 nM each of four base-labeled nucleotides, 250 nM Klenow (exo-), 10 mM CaCl2
Procedure: The following procedure was conducted using a SOLID sequencing instrument (SOLiD 0025) (Applied Biosystems, Foster City, Calif.), and template/primer duplexes immobilized on SOLiD S3 clonal beads, SOLiD flowcells, and Klenow polymerase.
Seven μM of the P2 primer, in 1×SSPE (150 mM NaCl, 10 mM sodium phosphate, 1 mM EDTA), was added to a SOLiD flowcell containing beads/template immobilized on a glass slide, at 25° C., then hybridized at 75° C. for 1 minute, 70° C. for 2 minutes, 65° C. for 2 minutes, 60° C. for 2 minutes, and washed with 1× Instrumentation Buffer (AB Part No. 4389784).
The labeled nucleotides were obtained from PerkinElmer Life and Analytical Science (Boston, Mass.): Cy5-dUTP, Cy3-dCTP, FAM-dGTP, and Texas Red (TxR)-dATP (base-labeled nucleotides). The Klenow fragment polymerase was obtained from New England Biolabs (No. M0212L, Ipswich, Mass.).
The beads were washed with 3 mL of Universal Buffer (50 mM NaCl, 10 mM Tris-HCl (pH 8), 10 mM CaCl2, 2 mM DTT). And 0.2 mL of Sensing Buffer Mix (200 nM each of Cy5-dUTP, Cy3-dCTP, Fam-dGTP, and Texas Red-dATP; 250 nM Klenow (exo-) in the Universal Buffer) was injected into the flowcell and incubated for 5 minutes at room temperature. […]

Substance: AF647-C6 alkyl linker-alpha-thio-dA4P nucleotide analog [alpha-thio-dA4P-AF647]
- signal from transiently-bound nucleotide ([1]; Base Reading Mix containing 5 mM MnCl2 (instead of CaCl2), correct nucleotide, 500 nM): no detectable signal
- signal from transiently-bound nucleotide ([1]; after addition of CaCl2 (approximated 5-10 mM) to the manganese reaction, without washing): detectable immediately upon addition of the calcium

Substance: Cy5-dUTP
- bead fluorescence after wash (Klenow (exo-)): fluoresce to a greater degree than the other dye-labeled nucleotides
